{"source": "patent US11999697B2", "about": "“Methods and compositions for inhibition of dihydroorotate dehydrogenase” (OHIO STATE INNOVATION FOUNDATION, priority 2018, dated 2024)", "key": {"[1]": {"tested_on": "THP1", "assay": "MTS cell proliferation assay, THP1", "assay_type": "cell-based", "conditions": "Homo sapiens, THP-1, 96 hours", "protocol": "Triplicate wells were set up for each condition.\nThe assays were carried out in a blinded fashion."}, "[2]": {"tested_on": "p53 signaling pathway in MOLM13, MV4-11, OCI-AML3", "assay": "Immunoblots for MDM2, p53, p-γH2AX, p21 in AML cell lines", "assay_type": "cell-based", "conditions": "1 μM, 24 hours", "protocol": "FIGS. 6A-6F show representative data and analysis for the effect of a representative disclosed compound, Cpd3, on the inhibition of MDM2. FIGS. 6A-6C show representative immunoblots for cells following vehicle treatment, treatment with a representative disclosed compound, Cpd3, or treatment with a reference compound, brequinar (indicated as “BQR” in the figures) using methods as described herein above. Briefly, AML cell lines were treated with vehicle, 1 μM Cpd3 or 1 μM BQR for 24 hours. Lysates were prepared and immunoblots were performed for MDM2, p53, p-γH2AX, p21 and GAPDH used as loading controls. […] That is, Cpd3 promotes a p53 response evident by both upregulation of the downstream target p21, with compensatory induction of MDM2. […] These preliminary data validate that Cpd3 is a potent inhibitor of DHODH in AML, and further preclinical development of Cpd3 is warranted."}, "[3]": {"tested_on": "NK cell function (MV4-11 targets, normal donor NK cells)", "assay": "Antibody dependent cellular cytotoxicity (ADCC) assay by 51Cr release", "assay_type": "cell-based, human", "conditions": "1 μM, 4 hours 51Cr release", "protocol": "Antibody Dependent Cellular Cytotoxicity (ADCC) Assay by ^51Cr Release: Assessment of NK-cell killing activity was performed using standard 4 hour ^51Cr release (CR) assay. Donor NK cells (effector cells) were isolated from the peripheral blood of normal donors (N=2). MV4-11 cells (target cells) were labeled with radioactive ^51Cr for 1 h at 37° C., washed, and plated in 96 well V-bottom plates at a density of 1×10^4 cells/well. Vehicle or 1 μM Cpd3 was added to either the NKs cells, the MV4-11 cells, or both prior to co-culturing. The ^51Cr labeled MV4-11 cells and NK cells were then co-cultured 25:1 or 12:1 effector to target (E:T) ratio in the presence of antibodies targeting the CD33 surface receptor (B133; B1836858), non-targeting isotype control (B147; B1836847), each at […], or no antibody control. Supernatants were collected after 4 h of co-culture and counted on a Perkin Elmer (Waltham, Mass.) Wizard γ-counter. The percentage of specific cell lysis was determined by: % lysis=100×(ER-SR)/(MR-SR). ER, SR, and MR represent experimental, spontaneous and maximum release. Data were normalized to the untreated control.\nBriefly, a chromium (Cr^51) release antibody dependent cellular toxicity assay was carried out with MV4-11 cells (targets) and normal donor NK cells (effectors; N=2). […] Cr^51 release was measured following 4 hours of incubation to determine relative toxicity."}, "[4]": {"assay": "Pharmacokinetic study, single dose by IV, IP, PO", "assay_type": "in vivo, wild type B6 mice", "conditions": "10 mg/kg single dose; for AUC(0-t) / Tmax / bioavailability / half-life: B6, mouse, plasma; for Cmax: B6, mouse plasma", "excerpt": "LC-MS/MS Assay Materials: Acetonitrile and methanol were LC-MS grade (Fisher Scientific (Fair Lawn, N.J., USA). Other chemicals were as follows: formic Acid (98%, v/v in water; Fisher Scientific, Fair Lawn, N.J., USA); ammonium acetate (Sigma Aldrich Inc.); water: DDH2O obtained from a Millipore water system; and brequinar was obtained from Sigma. (>99% purity). Solvent A: 0.1% formic acid in water. Solvent B: 0.1% Formic Acid in methanol and acetonitrile. Internal Standard (“IS”) precipitation solution was 150 ng/ml internal standards in acetonitrile: water (3:1, v/v).\nSample preparation: To 10 μL plasma sample was added 100 μL of working IS solution and 20 μL MeOH. Samples were then vortexed for 30 seconds, followed by centrifugation (Eppendorf 5415 R centrifuge) at 10,000 rpm for 8 minutes at 4° C. Supernatant of each sample was transferred into an autosampler vial and sealed with rubber/Teflon crimp cap. Sample volume that was injected onto HPLC was 5 μL. The calibrations samples were prepared at a test compound concentration of 1000, 500, 250, 100, 50, 10, 5 ng/mL in mouse plasma. The quality control samples were as follows: QC1=750 ng/mL, OC2=75 ng/mL, QC3=25 ng/mL, LLOQ=5 ng/mL.\nHPLC Parameters: Accucore Vanquish C18 column (100×2.1 mm, dp=1.5 μm) used in a Vanquish UHPLC system, using a XBridge® BEH C18, 5-μm guard column. Mobile phase: gradient as provided below in Table 8 below. Column temperature: 40° C.±5° C.; Autosampler temperature: 10° C.±5° C. Flow rate: 0.4 ml/min. run time: 5.0 min.\nThe mass spectrometer used was a TSQ Quantiva (Thermo Fisher Scientific).\nBriefly, wild type B6 mice were injected with a single dose (10 mg/kg) of Cpd3 by three different injection routes: oral gavage (PO), intravenous (IV) and intraperitoneal (IP) (N=4 per route). The vehicle used was 15% ethanol, 30% polyethylene glycol (PEG), and this same vehicle was used for each delivery route. Cpd3 was prepared as a 2.5 mg/mL concentration and delivered at 10 mg/kg (volume delivered in microliters was 4 times the weight of the mouse in grams). Blood plasma was sampled at time zero (0) and […] additional time points (15, 30 and 60 minutes, and 2, 6 and 24 hours), and the level of Cpd3 determined in mouse plasma by LC-MS/MS assay as described above. The data were used to calculate Cmax, Clast, Tmax, T1/2, AUC, and bioavailability for Cpd3 as appropriate for the route of administration."}}, "data": [{"smiles": "CCOc1ccc(-c2ccc(-c3cc(C(=O)O)c4cc(F)ccc4n3)cc2)cc1", "note": "[Cpd3, 2-(4′-ethoxy-[1,1′-biphenyl]-4-yl)-6-fluoroquinoline-4-carboxylic acid]", "values": [{"measurement": "IC50", "setting": "[1]", "result": 1.1, "unit": "µM"}, {"measurement": "induction of p53 signaling pathway and DNA damage", "setting": "[2]", "result": "induces the p53 signaling pathway and DNA damage"}, {"measurement": "NK cell function", "setting": "[3]", "result": "does not impact NK cell function"}, {"measurement": "AUC(0-t)", "setting": "[4]; IP", "result": "120 ± 228", "unit": "µg·h/mL"}, {"measurement": "Tmax", "setting": "[4]; IP", "result": "0.31 ± 0.13", "unit": "h"}, {"measurement": "bioavailability", "setting": "[4]; IP", "result": 89, "unit": "%"}, {"measurement": "half-life", "setting": "[4]; IP", "result": "2.2 ± 0.11", "unit": "h"}, {"measurement": "AUC(0-t)", "setting": "[4]; IV", "result": "134 ± 217", "unit": "µg·h/mL"}, {"measurement": "half-life", "setting": "[4]; IV", "result": "2.3 ± 0.19", "unit": "h"}, {"measurement": "AUC(0-t)", "setting": "[4]; PO", "result": "425 ± 163", "unit": "µg·h/mL"}, {"measurement": "Tmax", "setting": "[4]; PO", "result": 0.5, "unit": "h"}, {"measurement": "bioavailability", "setting": "[4]; PO", "result": 32, "unit": "%"}, {"measurement": "half-life", "setting": "[4]; PO", "result": "5.6 ± 1.95", "unit": "h"}, {"measurement": "Cmax", "setting": "[4]; IP", "result": "40200 ± 9300", "unit": "ng/mL"}, {"measurement": "Cmax", "setting": "[4]; IV", "result": "36400 ± 14300", "unit": "ng/mL"}, {"measurement": "Cmax", "setting": "[4]; PO", "result": "12200 ± 4300", "unit": "ng/mL"}, {"measurement": "Clast", "setting": "[4]; IP", "result": "16 ± 7", "unit": "ng/mL"}, {"measurement": "Clast", "setting": "[4]; IV", "result": "22 ± 16", "unit": "ng/mL"}, {"measurement": "Clast", "setting": "[4]; PO", "result": "310 ± 180", "unit": "ng/mL"}]}]}
